This passage reports IC50 results from patent EP0171441A1, “Prostaglandin analogues, processes for their preparation and compositions containing them” (ONO PHARMACEUTICAL CO., LTD., priority 1984, dated 1986).

The structures appear in SMILES notation. Values after ≈ are worked out from the molar mass of the structure shown.

This test has as its system cells originated from human mouth tumor (KB-cells). Kind of test: Test on inhibition of proliferation using cells originated from human mouth tumor (KB-cells). It is filed as cell-based. The following applies: 96 h, stationary culture at 37°C for 4 days, Trypan Blue staining, surviving cell number relative to control. The method, then: The cells originated from human mouth tumor (KB-cells) were added to Eagle's MEM culture solution containing 10% bovine fetal serum, the number of cells in the culture solution was adjusted to […] cells/ml, a solution in ethanol of the compound of the present invention was added to give a concentration of 5µg/ml or less (3 compounds) and the mixture subjected to stationary culture at 37°C for 4 days. As a control, a culture solution containing 0.1% of ethanol was similarly cultured. After the culture, the cells were
stained by the Trypan Blue staining method, and the surviving cell number was measured to determine the IC50 value from the degree of inhibition relative to the control. Compounds are identified by the Example (described hereinafter) in which they are prepared.
The IC50 is the midpoint of a concentration-inhibition curve. Read a low IC50 as inhibition by little substance. Regarding `CCCCC[C@H](O)/C=C/[C@H]1C(=O)C[C@H](O)[C@@H]1C/C=C\CCCCOC(=O)C=C(C)C` [Compound 1, 1-O-(3,3-dimethylacryloyl)-PGD2 alcohol], the IC50 worked out at 2.1 µg/mL (≈ 4.99 µM).
For `CCCCCC=CC=C1C(=O)C=C[C@@H]1C/C=C\CCCCO` [Compound 2, (5Z,14EZ)-11-oxoprosta-5,9,12,14-tetraen-1-ol], the IC50 is < 1 µg/mL.
Consider `CCCCCC=CC=C1C(=O)C=CC1CC=CCCCCOC(C)=O` (stereo not drawn) [Compound 3, (5Z,14EZ)-1-0-acetyl-11-oxoprosta-5,9,12,14-tetraen-l-ol], for which the IC50 worked out at 1.6 µg/mL (≈ 4.64 µM).
Molecule `CCCCC[C@H](O)/C=C/[C@H]1C(=O)C=C[C@@H]1C/C=C\CCCCOC(N)=O` [Compound 1(c)] showed an IC50 of 1.1 µg/mL (≈ 3.03 µM).
